Assay [1] deals with HLA-DRB1*0401 (Homo sapiens (Human), UniProt P01903+P01911, A100K/A169T/DEL228-266/F76Y/I96L/K127E/L162R/M171V/N62H/P40V/Q125Y/R42H/S133A/S149N/S66Y/V115G/V209L/W38E). Nature of the assay: HLA-DR4 HTRF assay. The format is binding. Conditions: inhibition of loading of Alexa Fluor 647-labeled Cit-CII peptide onto HLA-DR4 (CLIP cleaved). From the text:
(§1) The screening was made through two sets of HLA-DR/peptide-dependent assays: a peptide-dependent Homogeneous Time Resolved Fluorescence (HTRF) binding assay followed by an HLA-DR dependent, peptide-specific T cell functional assay (HLA-DR4-restricted peptide-specific T cell-based assay hybridoma assay). The HTRF binding assay was designed to measure the ability of the small molecule to inhibit the loading of a fluorescently labeled high-affinity peptide onto HLA-DR peptide binding groove. The peptide-specific T cell functional assay assesses T cell activation resulting from proper peptide presentation onto HLA-DR expressed on the surface of the antigen-presenting cells to the T cell and is used to screen compounds able to inhibit such HLA-DR/peptide-dependent T cell activation.
The HLA-DR4 HTRF assay is based on HTRF technology and designed to measure ability of compounds to prevent loading of high-affinity Alexa Fluor 647-labeled Citrullinated Collagen 111236-1249 peptide (named Cit-CII/AF647, aa1236-1249, LQYM-Cit-ADQAAGGLR; Alexa Fluor 647 dye commercially available from Invitrogen) onto HLA-DRB1*0401. The HTRF assay technology is based on the energy transfer between two fluorophores, a donor and an acceptor, when in close proximity. The HLA-DR4 protein construct was uniquely designed for this assay and has (i) the α and […] subunits fused to human Fc chains and (ii) the invariant chain-associated peptide (CLIP peptide, aa85-101), the universal moderate/low-affinity HLA-DR binder, attached to the beta chain through a HRV3C protease-cleavable linker.
Because of the low stability of peptide free HLA-DR4 heterodimer, the construct was purified and delivered with CLIP peptide attached to the N-terminal of the β chain. The HLA-DR4 heterodimer was pre-treated with 3 μL HRV3C protease (Novagen E71493-3) (˜2 U/μL) per mg of the cleavable protein to cleave CLIP peptide and incubated overnight (>16 hrs) at 4° C. This method yielded at least 80% cleavage and allowed the CLIP peptide to be potentially exchanged with the fluorescently labeled high affinity cit-CII1236-1249 peptide. A batch of […] protein with CLIP cleaved was prepared for multiple experiments and was stable for several months when stored at 4° C.
In this assay, anti-human Fc antibody labeled with Tb-Cryptate probe was used as the donor (commercially available from Cisbio—PAb Anti-human IgG-Tb Cryptate, Cat #61HFCTAB) and high affinity peptide Citrullinated CII (cit-CII) labeled with Alexa 647 fluorophore was utilized as the acceptor. Inhibitors of the exchange of the pre-cleaved CLIP peptide for the high affinity cit-CII1236-1249 peptide onto HLA-DRB1*04:01 caused a decrease in HTRF signal as measured by the ratio of the 665 nm/620 nm emitted signal. Screening compounds were robotically pre-dispensed (150 nL, Hummingbird, DigiLab/CyBio AG) onto black, round bottom, nontreated, 1536-well assay plates (Corning #3939), were incubated with 3 nM HLA-DR4 (with CLIP cleaved) plus 1 nM Human IgG-Tb (anti-Fc-Tb) Antibody for 45 min prior to addition of 40 nM Cit-CII peptide labeled with Alexa-647. The negative control was DMSO plus 1 nM Human IgG-Tb (anti-Fc-Tb) Antibody, incubated for 45 minutes before addition of 40 nM Cit-CII peptide labeled with Alexa-647. The positive control was DMSO plus 3 nM HLA-DR4 (with CLIP cleaved) plus 1 nM Human IgG-Tb (anti-Fc-Tb) Antibody with 40 nM Cit-CII peptide labeled with Alexa-647 added after a 45-minute incubation. Plates were centrifuged at 1000 rpm for 1 minute and then incubated at 37° C., at 90% relative humidity for 90 minutes. After incubation, plates were read on a spectrophotometer, the Pherastar FS (BMG Labtech), in HTRF mode. The HTRF ratio as well as percent inhibition was calculated. Curve fitting and IC50 calculation for dose response data was performed by Microsoft Excel, 3DX (Janssen proprietary software) or Graphpad Prism (Graphpad Software, San Diego, CA). […]
(Time-resolved FRET reads energy transfer from a long-lived donor to a nearby acceptor.)

In assay [2] the test system is HLA-DR4 restricted mouse T cell hybridoma line (DR4.CII.36.8) with HLA-DRB1*04:01-expressing Boleth cells. Kind of assay: HLA-DR4-restricted peptide-specific T cell-based assay (hybridoma assay). Particulars: Mus musculus, T-cell, 6 h, inhibition of IL-2 production, CII259-273 peptide presented by Boleth cells.
Description: as §1
HLA-DR4-Restricted Peptide-Specific T Cell-Based Assay (Hybridoma Assay)
The hybridoma assay was used to measure compound inhibition of TL-2 production from an HLA-DR4 restricted mouse T cell hybridoma line (DR4.CII.36.8) that was antigen-specific for collagen II259-273 (CII259-273) peptide when presented with an HLA-DR4 expressing Antigen Presenting Cell (APC) cell line (i.e., Boleth).
To the HLA-DRB1*04:01-expressing B cell line (Boleth cell line from International Histocompatibility Working Group (IHWG), ref #IHW09031) was presented the collagen II 259-273 peptide (CII259-273, GIAGFKGEQGPKGEP) to mouse T cell hybridoma (DR4.CII.36.8 T cell hybridoma; clone 36.8, expressing a CII259-273-specific, HLA-DRB1*04:01-restricted T cell receptor). Upon proper CII259-273 peptide presentation, the T cell hybridoma was activated and thus produced IL-2 cytokine, whose level in the cell culture supernatant was detected using mouse IL-2 AlphaLISA kit (Perkin Elmer, Cat: AL511F).
This assay was performed in a 384-well plate (polypropylene V-bottom Greiner bio-one, ref #784075) by: (i) pre-incubation of 20 μL of 1.25 million/mL Boleth cells (25,000 cells) resuspended in DMEM/1% fetal calf serum (FCS; Gibco, ref #16140-071) with 20 μL of 2.5× final concentration of compound of interest in DMEM/1% serum/0.75% DMSO at 37° C. for 1 hr in the incubator, then (ii) 10 μL of 5 million/mL (50,000 cells) DR4.CII.36.8 T cell hybridoma cells resuspended in DMEM/1% FCS was added and incubated for 6 h at 37° C. in the incubator. Supernatant was then collected and mouse IL-2 detected using AlphaLISA kit (ref #AL511F). Compounds were tested in duplicate, with 8-point titration. Mean±SD of AlphaLISA units at each compound concentration was used for compound IC50 calculation. The negative control for this experiment was run without peptide stimulation and used a DMSO vehicle wherein no compound of interest was added. The positive control was run with peptide stimulation and used a DMSO vehicle wherein no compound of interest was added. Both the negative and positive controls were run in 8 replicates each. Curve fitting and IC50 calculation for dose response data was performed by GraphPad software 6 or higher (GraphPad Software, San Diego, CA). Dose response data was plotted versus the log of compound concentration and IC50 was determined using 4-parameter logistic (4-PL) curve fitting.

Molecules are shown by their SMILES.

As usually defined, the IC50 is the concentration that gives 50% inhibition. A lower IC50 goes with greater potency in that assay. For the molecule `CC[C@@H]1CC(=O)c2ccc(OCc3ccncc3OC)cc2O1` (single isomer, unassigned) [Example 119a, (*R)-2-ethyl-7-((3-methoxypyridin-4-yl)methoxy)chroman-4-one], the results for the IC50 in assay [1] and in assay [2] were 0.54 µM and 13 µM, respectively.

Regarding `Cc1c(O[C@H]2CCCc3cc(C#N)ccc32)ccc2c1OCCC2=O` (single isomer, unassigned) [Example 122b, (*S)-5-((8-methyl-4-oxochroman-7-yl)oxy)-5,6,7,8-tetrahydronaphthalene-2-carbonitrile], the IC50 in assay [1] was found to be 0.93 µM; in assay [2], 15 µM.

Turning to `Cc1cc([C@H](Oc2ccc3c(c2C)OCCC3=O)c2ccc(C(N)=O)cc2)cc(C)n1` (single isomer, unassigned) [Example 111a, (*R)-4-((2,6-dimethylpyridin-4-yl)((8-methyl-4-oxochroman-7-yl)oxy)methyl)benzamide], the IC50 in assay [1] turned out to be 0.49 µM; in assay [2] it was 0.6 µM.

Take `NC(=O)c1ccc([C@@H](Oc2ccc3c(c2)OCCC3=O)c2ccncc2N)cc1` (single isomer, unassigned) [Example 27a, (*R)-4-((3-aminopyridin-4-yl)((4-oxochroman-7-yl)oxy)methyl)benzamide]: the IC50 in assay [1] is 7.3 µM; in assay [2] it was 13 µM.

With `CC(C)c1c(O[C@H](c2ccc(C(N)=O)cc2)c2cccc(C#N)c2)ccc2c1OCCC2=O` (single isomer, unassigned) [Example 107a, (*R)-4-((3-cyanophenyl)((8-isopropyl-4-oxochroman-7-yl)oxy)methyl)benzamide], the IC50 was 0.94 µM in assay [1] and 10 µM in assay [2].

For `C[C@H]1CC(=O)c2ccc(O[C@H](c3ccncc3)c3ccc(C(N)=O)cc3)cc2O1` (single isomer, unassigned) [Example 39d, 4-((*S)—(((*S)-2-Methyl-4-oxochroman-7-yl)oxy)(pyridin-4-yl)methyl)benzamide], the results for the IC50 in assay [1] and in assay [2] were 1 µM and 15 µM, respectively.

Regarding `N#Cc1ccccc1[C@@H](Oc1ccc2c(c1)OCCC2=O)c1ccncc1` (single isomer, unassigned) [Example 7b, (*S)-2-(((4-Oxochroman-7-yl)oxy)(pyridin-4-yl)methyl)benzonitrile], the IC50 in assay [1] turned out to be 0.96 µM; in assay [2], 5.4 µM.

On to `Cc1cc2c(c(C)c1O[C@@H](c1ccc(F)cc1)c1ccc(C(N)=O)cc1)OCCC2=O` (single isomer, unassigned) [Example 90a, (*R)-4-(((6,8-dimethyl-4-oxochroman-7-yl)oxy)(4-fluorophenyl)methyl)benzamide], for which the IC50 in assay [1] was 0.52 µM; in assay [2], over 15 µM.

As to `Cc1c(O[C@H]2CCCc3cc(C(N)=O)ccc32)ccc2c1OCCC2=O` (single isomer, unassigned) [Example 123b, (*S)-5-((8-methyl-4-oxochroman-7-yl)oxy)-5,6,7,8-tetrahydronaphthalene-2-carboxamide], the results for the IC50 in assay [1] and in assay [2] were 0.57 µM and 6.3 µM, respectively.

Take `NC(=O)c1ccc([C@H](Oc2ccc3c(c2)OCCC3=O)c2ccccn2)cc1` (single isomer, unassigned) [Example 32b, (*S)-4-(((4-oxochroman-7-yl)oxy)(pyridin-2-yl)methyl)benzamide]: the IC50 was 1.9 µM in assay [1] and over 15 µM in assay [2].

On to `Cc1c(O[C@@H](c2ccncc2)c2cccc(S(C)(=O)=O)c2)c(F)cc2c1OCCC2=O` (single isomer, unassigned) [Example 105b, (*S)-6-fluoro-8-methyl-7-((3-(methylsulfonyl)phenyl)(pyridin-4-yl)methoxy)chroman-4-one], for which the IC50 in assay [1] is 0.19 µM; in assay [2], 6 µM.

As to `CC[C@H]1CC(=O)c2ccc(OCc3ccncc3OC)cc2O1` (single isomer, unassigned) [Example 119b, (*S)-2-ethyl-7-((3-methoxypyridin-4-yl)methoxy)chroman-4-one], the IC50 was 0.69 µM in assay [1] and over 15 µM in assay [2].

As for `Cc1c(O[C@H](c2ccncc2)c2ccc(C(N)=O)c(F)c2)c(F)cc2c1OCCC2=O` (single isomer, unassigned) [Example 95a, (*R)-2-fluoro-4-(((6-fluoro-8-methyl-4-oxochroman-7-yl)oxy)(pyridin-4-yl)methyl)benzamide], the IC50 amounted to 0.22 µM in assay [1] and 0.23 µM in assay [2].

In the case of `Cc1cc([C@H](Oc2ccc3c(c2C)OC(C)(C)CC3=O)c2ccc(C(N)=O)cc2)cc(C)n1` (single isomer, unassigned) [Example 112a, (*R)-4-((2,6-dimethylpyridin-4-yl)((2,2,8-trimethyl-4-oxochroman-7-yl)oxy)methyl)benzamide], the IC50 is 0.76 µM in assay [1] and 0.41 µM in assay [2].

With `CCc1cc(O[C@H](c2ccncc2)c2ccc(C(N)=O)cc2)cc2c1C(=O)CCO2` (single isomer, unassigned) [Example 99b, (*S)-4-(((5-ethyl-4-oxochroman-7-yl)oxy)(pyridin-4-yl)methyl)benzamide], the results for the IC50 in assay [1] and in assay [2] were over 89 µM and 5.5 µM, respectively.

As to `CCOc1cc(C(N)=O)ccc1[C@@H](Oc1ccc2c(c1C)OCCC2=O)c1ccncc1` (single isomer, unassigned) [Example 83b, (*S)-3-ethoxy-4-(((8-methyl-4-oxochroman-7-yl)oxy)(pyridin-4-yl)methyl)benzamide], the IC50 in assay [1] stood at 0.69 µM; in assay [2] it was 5 µM.
